# Source: US9902702B2, “Spirocycloheptanes as inhibitors of rock” (BRISTOL-MYERS SQUIBB COMPANY, priority 2014, dated 2018)
# Target: ROCK2 (Homo sapiens, UniProt O75116)
# Assay: ROCK assay: phosphorylation of FITC peptide substrate, LABCHIP 3000 mobility shift
# Type: biochemical
# Settings: 5 μM ATP, 1.5 μM peptide substrate; read-out: ROCK2 Activity (ROCK IC50 range)
# Outline: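 Rho kinase variant phosphorylates 1.5 μM FITC-AHA-AKRRRLSSLRA-OH with 5 μM ATP in 20 mM HEPES pH 7.5, 20 mM MgCl2, 0.015% Brij-35, 4 mM DTT, DMSO <2%. EDTA stops the reaction, and phospho and non-phospho peptides are resolved by LabChip 3000 mobility shift. IC50 from dose-response curve fit.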
# ROCK2, sequence (O75116 whole entry, species assumed): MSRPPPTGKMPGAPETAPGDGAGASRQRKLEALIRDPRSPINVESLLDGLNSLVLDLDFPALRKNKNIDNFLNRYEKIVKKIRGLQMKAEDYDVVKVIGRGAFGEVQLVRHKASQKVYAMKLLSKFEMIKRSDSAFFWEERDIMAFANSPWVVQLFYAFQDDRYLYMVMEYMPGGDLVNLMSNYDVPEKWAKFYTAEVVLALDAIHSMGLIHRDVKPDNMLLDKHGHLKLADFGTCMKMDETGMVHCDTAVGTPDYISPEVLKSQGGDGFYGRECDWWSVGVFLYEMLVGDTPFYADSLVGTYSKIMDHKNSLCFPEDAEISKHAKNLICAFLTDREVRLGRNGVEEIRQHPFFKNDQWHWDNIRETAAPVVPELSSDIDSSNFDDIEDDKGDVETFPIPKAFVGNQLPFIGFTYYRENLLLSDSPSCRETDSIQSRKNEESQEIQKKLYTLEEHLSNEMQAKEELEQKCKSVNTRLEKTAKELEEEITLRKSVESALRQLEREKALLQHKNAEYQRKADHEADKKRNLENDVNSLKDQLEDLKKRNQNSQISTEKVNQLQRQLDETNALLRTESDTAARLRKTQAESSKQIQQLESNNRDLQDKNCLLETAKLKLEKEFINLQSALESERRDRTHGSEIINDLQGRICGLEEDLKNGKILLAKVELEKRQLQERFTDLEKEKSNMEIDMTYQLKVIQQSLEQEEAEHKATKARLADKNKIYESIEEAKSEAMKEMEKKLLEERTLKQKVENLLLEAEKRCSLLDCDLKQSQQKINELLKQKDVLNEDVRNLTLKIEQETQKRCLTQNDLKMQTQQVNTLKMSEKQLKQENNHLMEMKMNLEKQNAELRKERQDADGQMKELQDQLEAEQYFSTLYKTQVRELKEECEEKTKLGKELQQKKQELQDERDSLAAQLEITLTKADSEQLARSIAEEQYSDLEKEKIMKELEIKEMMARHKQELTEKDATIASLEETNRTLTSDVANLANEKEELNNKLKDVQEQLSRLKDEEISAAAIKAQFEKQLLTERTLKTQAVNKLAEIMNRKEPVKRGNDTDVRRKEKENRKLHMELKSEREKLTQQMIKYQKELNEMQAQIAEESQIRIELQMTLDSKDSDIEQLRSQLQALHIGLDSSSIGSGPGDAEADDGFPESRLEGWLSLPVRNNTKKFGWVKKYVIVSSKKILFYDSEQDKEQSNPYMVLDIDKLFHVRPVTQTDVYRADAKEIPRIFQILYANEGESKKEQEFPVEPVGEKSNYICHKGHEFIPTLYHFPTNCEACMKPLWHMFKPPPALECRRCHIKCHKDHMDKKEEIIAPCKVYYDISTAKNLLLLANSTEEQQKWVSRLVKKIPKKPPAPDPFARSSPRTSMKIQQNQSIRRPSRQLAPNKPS
row,Structure (SMILES),IC50
1,"[H][C@]1(c2n[nH]c(=O)c3ccccc32)C[C@]2(C[C@@H](NC(=O)c3ccc4[nH]c(C)nc4c3)C2)C1 (stereo partly drawn) [Example 309, 2-methyl-N-((aR)-6-(4-oxo-3,4-dihydrophthalazin-1-yl)spiro[3.3]heptan-2-yl)-1H-benzo[d] imidazole-5-carboxamide]",15.1 to 100 nM
2,"O=C(NC1CC2(C1)CC(c1n[nH]c(=O)c3ccccc13)C2)c1cnc2[nH]cnc2c1 [Example 310, N-((aR)-6-(4-oxo-3,4-dihydrophthalazin-1-yl)spiro[3.3]heptan-2-yl)-3H-imidazo[4,5-b]pyridine-6-carboxamide]",15.1 to 100 nM
3,"[H][C@]1(c2n[nH]c(=O)c3ccccc32)C[C@]2(C[C@@H](NC(=O)c3ccc(NC=O)c(O)c3)C2)C1 (stereo partly drawn) [Example 311, 4-formamido-3-hydroxy-N-((aR)-6-(4-oxo-3,4-dihydrophthalazin-1-yl)spiro[3.3]heptan-2-yl)benzamide]",5.1 to 15 nM
4,"[H][C@]1(c2n[nH]c(=O)c3ccccc32)C[C@]2(C[C@@H](NC(=O)c3cc4ccc(Cl)cc4s3)C2)C1 (stereo partly drawn) [Example 313, 6-chloro-N-((aR)-6-(4-oxo-3,4-dihydrophthalazin-1-yl)spiro[3.3]heptan-2-yl)benzo[b] thiophene-2-carboxamide]",5.1 to 15 nM
5,"[H][C@]1(c2n[nH]c(=O)c3ccccc32)C[C@]2(C[C@@H](NC(=O)c3cc4ccc(OC)cc4n3C)C2)C1 (stereo partly drawn) [Example 314, 6-methoxy-1-methyl-N-((aR)-6-(4-oxo-3,4-dihydrophthalazin-1-yl)spiro[3.3]heptan-2-yl)-1H-indole-2-carboxamide]",5.1 to 15 nM
6,"[H][C@]1(c2n[nH]c(=O)c3ccccc32)C[C@]2(C[C@@H](NC(=O)c3ccc4nc(C)oc4c3)C2)C1 (stereo partly drawn) [Example 315, 2-methyl-N-((aR)-6-(4-oxo-3,4-dihydrophthalazin-1-yl)spiro[3.3]heptan-2-yl)benzo[d] oxazole-6-carboxamide]",15.1 to 100 nM
7,"[H][C@]1(c2n[nH]c(=O)c3ccccc32)C[C@]2(C[C@@H](NC(=O)c3cc4cc(OCc5ccccc5)ccc4[nH]3)C2)C1 (stereo partly drawn) [Example 319, 5-(benzyloxy)-N-((aR)-6-(4-oxo-3,4-dihydrophthalazin-1-yl)spiro[3.3]heptan-2-yl)-1H-indole-2-carboxamide]",15.1 to 100 nM
8,"[H][C@]1(c2n[nH]c(=O)c3ccccc32)C[C@]2(C[C@@H](NC(=O)c3cc4ccc(F)cc4[nH]3)C2)C1 (stereo partly drawn) [Example 320, 6-fluoro-N-((aR)-6-(4-oxo-3,4-dihydrophthalazin-1-yl)spiro[3.3]heptan-2-yl)-1H-indole-2-carboxamide]",5.1 to 15 nM
9,"[H][C@]1(c2n[nH]c(=O)c3ccccc32)C[C@]2(C[C@@H](NC(=O)c3cc4ccc(F)c(C)c4[nH]3)C2)C1 (stereo partly drawn) [Example 329, 6-fluoro-7-methyl-N-((aR)-6-(4-oxo-3,4-dihydrophthalazin-1-yl)spiro[3.3]heptan-2-yl)-1H-indole-2-carboxamide]",0.2 to 2 nM
10,"[H][C@]1(c2n[nH]c(=O)c3ccccc32)C[C@]2(C[C@@H](NC(=O)c3cc4cccc(C(F)(F)F)c4[nH]3)C2)C1 (stereo partly drawn) [Example 332, N-((aR)-6-(4-oxo-3,4-dihydrophthalazin-1-yl)spiro[3.3]heptan-2-yl)-7-(trifluoromethyl)-1H-indole-2-carboxamide]",0.2 to 2 nM
11,"[H][C@]1(c2n[nH]c(=O)c3ccccc32)C[C@]2(C[C@@H](NC(=O)c3cc4c(OC)ccc(OC)c4[nH]3)C2)C1 (stereo partly drawn) [Example 334, 4,7-dimethoxy-N-((aR)-6-(4-oxo-3,4-dihydrophthalazin-1-yl)spiro[3.3]heptan-2-yl)-1H-indole-2-carboxamide]",5.1 to 15 nM
12,"[H][C@]1(c2n[nH]c(=O)c3ccccc32)C[C@]2(C[C@@H](NC(=O)c3cc4cc(F)cc(S(C)(=O)=O)c4[nH]3)C2)C1 (stereo partly drawn) [Example 335, 5-fluoro-7-(methylsulfonyl)-N-((aR)-6-(4-oxo-3,4-dihydrophthalazin-1-yl)spiro[3.3]heptan-2-yl)-1H-indole-2-carboxamide]",2.01 to 5 nM
13,"[H][C@]1(c2n[nH]c(=O)c3ccccc32)C[C@]2(C[C@@H](NC(=O)c3ccc(-c4cn[nH]c4)cc3)C2)C1 (stereo partly drawn) [Example 337, N-((aR)-6-(4-oxo-3,4-dihydrophthalazin-1-yl)spiro[3.3]heptan-2-yl)-4-(1H-pyrazol-4-yl)benzamide]",5.1 to 15 nM
14,"[H][C@]1(c2n[nH]c(=O)c3ccccc32)C[C@]2(C[C@@H](NC(=O)c3cccc(OCCN4CCOCC4)c3)C2)C1 (stereo partly drawn) [Example 338, 3-(2-morpholino-ethoxy)-N-((aR)-6-(4-oxo-3,4-dihydrophthalazin-1-yl)spiro[3.3]heptan-2-yl)benzamide]",15.1 to 100 nM

# Second part, the compound after the results:
row,IC50,Structure (SMILES)
1,5.1 to 15 nM,"[H][C@]1(c2n[nH]c(=O)c3ccccc32)C[C@]2(C[C@@H](NC(=O)c3ccc4[nH]cnc4c3)C2)C1 (stereo partly drawn) [Example 308, N-((aR)-6-(4-oxo-3,4-dihydrophthalazin-1-yl)spiro[3.3]heptan-2-yl)-1H-benzo[d] imidazole-5-carboxamide]"
2,5.1 to 15 nM,"[H][C@]1(c2n[nH]c(=O)c3ccccc32)C[C@]2(C[C@@H](NC(=O)c3cc4cccnc4[nH]3)C2)C1 (stereo partly drawn) [Example 312, N-((aR)-6-(4-oxo-3,4-dihydrophthalazin-1-yl)spiro[3.3]heptan-2-yl)-1H-pyrrolo[2,3-b]pyridine-2-carboxamide]"
3,5.1 to 15 nM,"[H][C@]1(c2n[nH]c(=O)c3ccccc32)C[C@]2(C[C@@H](NC(=O)c3ccc4cn[nH]c4c3)C2)C1 (stereo partly drawn) [Example 316, N-((aR)-6-(4-oxo-3,4-dihydrophthalazin-1-yl)spiro[3.3]heptan-2-yl)-1H-indazole-6-carboxamide]"
4,5.1 to 15 nM,"[H][C@]1(c2n[nH]c(=O)c3ccccc32)C[C@]2(C[C@@H](NC(=O)c3ccc4c(c3)ncn4C)C2)C1 (stereo partly drawn) [Example 317, 1-methyl-N-((aR)-6-(4-oxo-3,4-dihydrophthalazin-1-yl)spiro[3.3]heptan-2-yl)-1H-benzo[d] imidazole-5-carboxamide]"
5,5.1 to 15 nM,"[H][C@]1(c2n[nH]c(=O)c3ccccc32)C[C@]2(C[C@@H](NC(=O)c3cnc4ccccn34)C2)C1 (stereo partly drawn) [Example 318, N-((aR)-6-(4-oxo-3,4-dihydrophthalazin-1-yl)spiro[3.3]heptan-2-yl)imidazo[1,2-a]pyridine-3-carboxamide]"
6,100 to 2100 nM,"[H][C@]1(c2n[nH]c(=O)c3ccccc32)C[C@]2(C[C@@H](NC(=O)C3CCc4ccccc43)C2)C1 (stereo partly drawn) [Example 321, N-((aR)-6-(4-oxo-3,4-dihydrophthalazin-1-yl)spiro[3.3]heptan-2-yl)-2,3-dihydro-1H-indene-1-carboxamide]"
7,2.01 to 5 nM,"[H][C@]1(c2n[nH]c(=O)c3ccccc32)C[C@]2(C[C@@H](NC(=O)c3cc4cccc(C)c4[nH]3)C2)C1 (stereo partly drawn) [Example 322, 7-methyl-N-((aR)-6-(4-oxo-3,4-dihydrophthalazin-1-yl)spiro[3.3]heptan-2-yl)-1H-indole-2-carboxamide]"
8,100 to 2100 nM,"[H][C@]1(c2n[nH]c(=O)c3ccccc32)C[C@]2(C[C@@H](NC(=O)C3NCc4ccccc43)C2)C1 (stereo partly drawn) [Example 323, N-((aR)-6-(4-oxo-3,4-dihydrophthalazin-1-yl)spiro[3.3]heptan-2-yl)isoindoline-1-carboxamide]"
9,5.1 to 15 nM,"O=C(N[C@H]1CC2(C1)C[C@H](c1n[nH]c(=O)c3ccccc31)C2)c1cc2ccccn2n1 (stereo partly drawn) [Example 325, N-((aR)-6-(4-oxo-3,4-dihydrophthalazin-1-yl)spiro[3.3]heptan-2-yl)pyrazolo[1,5-a]pyridine-2-carboxamide]"
10,2.01 to 5 nM,"[H][C@]1(c2n[nH]c(=O)c3ccccc32)C[C@]2(C[C@@H](NC(=O)c3cc4ccccc4cn3)C2)C1 (stereo partly drawn) [Example 326, N-((aR)-6-(4-oxo-3,4-dihydrophthalazin-1-yl)spiro[3.3]heptan-2-yl)isoquinoline-3-carboxamide]"
11,2.01 to 5 nM,"[H][C@]1(c2n[nH]c(=O)c3ccccc32)C[C@]2(C[C@@H](NC(=O)c3cc4cccc(O)c4[nH]3)C2)C1 (stereo partly drawn) [Example 327, 7-hydroxy-N-((aR)-6-(4-oxo-3,4-dihydrophthalazin-1-yl)spiro[3.3]heptan-2-yl)-1H-indole-2-carboxamide]"
12,2.01 to 5 nM,"[H][C@]1(c2n[nH]c(=O)c3ccccc32)C[C@]2(C[C@@H](NC(=O)c3cc4cccc(Cl)c4[nH]3)C2)C1 (stereo partly drawn) [Example 328, 7-chloro-N-((aR)-6-(4-oxo-3,4-dihydrophthalazin-1-yl)spiro[3.3]heptan-2-yl)-1H-indole-2-carboxamide]"
13,15.1 to 100 nM,"[H][C@]1(c2n[nH]c(=O)c3ccccc32)C[C@]2(C[C@@H](NC(=O)c3ccc4ccccc4n3)C2)C1 (stereo partly drawn) [Example 330, N-((aR)-6-(4-oxo-3,4-dihydrophthalazin-1-yl)spiro[3.3]heptan-2-yl)quinoline-2-carboxamide]"
14,5.1 to 15 nM,"[H][C@]1(c2n[nH]c(=O)c3ccccc32)C[C@]2(C[C@@H](NC(=O)c3ccc(Br)cc3)C2)C1 (stereo partly drawn) [Example 331, 4-bromo-N-((aR)-6-(4-oxo-3,4-dihydrophthalazin-1-yl)spiro[3.3]heptan-2-yl)benzamide]"
15,5.1 to 15 nM,"[H][C@]1(c2n[nH]c(=O)c3ccccc32)C[C@]2(C[C@@H](NC(=O)c3cc4cccc(F)c4[nH]3)C2)C1 (stereo partly drawn) [Example 333, 7-fluoro-N-((aR)-6-(4-oxo-3,4-dihydrophthalazin-1-yl)spiro[3.3]heptan-2-yl)-1H-indole-2-carboxamide]"
16,15.1 to 100 nM,"[H][C@]1(c2n[nH]c(=O)c3ccccc32)C[C@]2(C[C@@H](NC(=O)c3cccc(-n4cccn4)c3)C2)C1 (stereo partly drawn) [Example 336, N-((aR)-6-(4-oxo-3,4-dihydrophthalazin-1-yl)spiro[3.3]heptan-2-yl)-3-(1H-pyrazol-1-yl)benzamide]"
17,15.1 to 100 nM,"O=C(NC1CC2(C1)CC(c1n[nH]c(=O)c3ccccc13)C2)c1cccc(-c2cn[nH]c2)c1 [Example 339, N-((aR)-6-(4-oxo-3,4-dihydrophthalazin-1-yl)spiro[3.3]heptan-2-yl)-3-(1H-pyrazol-4-yl)benzamide]"
